Laboratory results as given in BindingDB's records for doi:10.1124/jpet.302.2.687 (University of Kentucky, 2002).
Structures can show the parent of a compound that is named as a salt.

Target: Nicotinic acetylcholine receptor (Rattus leucopus, UniProt Q62594)
Sequence (Q62594 whole entry): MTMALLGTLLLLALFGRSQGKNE

CC(NC(C)(C)C)C(=O)c1cccc(Cl)c1 (stereo unspecified) [BUPROPION HYDROCHLORIDE]
Ki: > 10 µM
